This series in a line: gradient 5% acetonitrile 3 min, to 50% in 2 min, to 85% in 15 min, held 3 min, 100 µL/min. As to conditions: column: Zorbax Extend-C18 2.1 x 50 mm; eluents: water / acetonitrile, 0.1% formic acid. Summed up:
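Pure standards were run in mixtures of ~100 molecules by HPLC coupled to a quadrupole time-of-flight mass spectrometer. The column was a Zorbax Extend-C18 (2.1 × 50 mm, 1.8 μm) at 100 μL/min, with water and acetonitrile each containing 0.1% formic acid, in positive and negative ionization mode. Dead and dwell volumes were 40 μL and 900 μL. Retention time was taken from computationally picked adduct peaks, each manually inspected, with data collected over 3 months.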
Take `CCCN(C(=O)CC(=O)OCC)c1nc(-c2ccc(C)cc2)cs1`: the RP-LC retention time was determined as 1250 s.

For `O=C(CSc1ccc(F)cc1)Nc1ccc2c(c1)CC(=O)N2`, the RP-LC retention time worked out at 646 s.

In turn, `O=c1ccc(-c2ccc3c(c2)OCO3)nn1CCc1nc(-c2ccc(Cl)cc2)no1` yielded an RP-LC retention time of 1040 s.

In turn, `CC(=O)c1cccc(NC(=O)Cn2cc3c(n2)CCCC3)c1` displayed an RP-LC retention time of 760 s.

Turning to `CC(C)c1nc2c(c(=O)n1CC(=O)NCc1ccccc1)CN(Cc1ccccc1)CC2`, the RP-LC retention time is 659 s.

`Cc1ccccc1-c1noc(Cn2ccn(Cc3ccc(Cl)cc3)c(=O)c2=O)n1`: the RP-LC retention time is 943 s.

In the case of `COc1cccc(Cc2nc(-c3ccc4c(c3)nc(C)c(=O)n4C)no2)c1`, the RP-LC retention time was 899 s.

Compound `COC1C(=O)N(CC2CC2)C12CCN(C(=O)c1ccc(C)s1)CC2` (stereo not given) yielded an RP-LC retention time of 566 s.

In turn, `O=C(Cc1csc2nc(-c3ccccc3)cn12)Nc1ccc(F)cc1` registered an RP-LC retention time of 774 s.

`O=C(c1ccc2c(c1)CCCN2S(=O)(=O)c1ccccc1)N1CCCCC1` showed an RP-LC retention time of 939 s.

Take `C[C@H](NC[C@H](O)CP(=O)(O)Cc1ccccc1)c1ccc(Cl)c(Cl)c1`: the RP-LC retention time was determined as 722 s.

In the case of `Cc1ccccc1NS(=O)(=O)c1ccc(-c2nnc(C3CCC3)o2)o1`, the RP-LC retention time was 909 s.

Regarding `Cn1cccc1C(=O)N1CC(Oc2cccc(-c3nc(-c4ccccc4)no3)c2)C1`, the RP-LC retention time stood at 1220 s.

In turn, `O=C1CCCN1CCCN(CC(=O)N1CCNCC1)C(=O)c1ccc(C(F)(F)F)cc1` displayed an RP-LC retention time of 602 s.

`CCOc1cccc(CNC(=O)CCc2nnc3c4cc(-c5ccccc5)nn4ccn23)c1` showed an RP-LC retention time of 766 s.

Turning to `Cc1ccc(S(=O)(=O)N2CCSCCSCCSCCSCC2)cc1`, the RP-LC retention time amounted to 1160 s.

`CCCNC(=O)c1sc(Nc2ccc(Br)cn2)nc1C`: the RP-LC retention time worked out at 802 s.

For the compound `Cc1cccc(NC(=O)N(C)CCc2noc(COc3ccccc3)n2)c1C`, the RP-LC retention time worked out at 913 s.

Turning to `O=S(=O)(c1cccc(Br)c1)N1CCc2nc(-c3ccc(F)cc3)ncc2C1`, the RP-LC retention time came to 1160 s.

Take `COc1cc(OC)cc(C(=O)N2CCN(c3cc(C)n4c(C)nnc4n3)CC2)c1`: the RP-LC retention time worked out at 601 s.

In turn, `CC1(c2ccccc2)NN=C2Oc3ccccc3N21` (stereo not given) gave an RP-LC retention time of 812 s.

The compound `O=C(NC1CCN(Cc2ccccc2)CC1)C1CCCN(S(=O)(=O)N2CCOCC2)C1` (stereo not given) displayed an RP-LC retention time of 593 s.

For the compound `O=C1CC(NC(=O)NCc2ccc(Cl)cc2)CN1` (stereo not given), the RP-LC retention time was 592 s.

`Cc1cc(=O)n(CC(=O)Nc2ccc(F)cc2)c(-c2ccc(F)cc2)n1` had an RP-LC retention time of 1040 s.

The compound `COCC(=O)N(C1CCOCC1)C1CCN(C(=O)Cc2ccc(Cl)cc2)CC1` displayed an RP-LC retention time of 618 s.

Consider `CNC(=O)N1CCCC(c2cccc(C(=O)NCc3cccc(C(F)(F)F)c3)c2)C1` (stereo not given), for which the RP-LC retention time worked out at 850 s.

Turning to `CC(=O)c1cccc(NC(=O)Cn2nc3c4cc(-c5ccccc5)nn4ccn3c2=O)c1`, the RP-LC retention time is 822 s.

`O=C(c1ccc(C(F)(F)F)cc1)N1CC2CN(S(=O)(=O)c3ccccc3)CC(C1)O2` returned an RP-LC retention time of 881 s.

As for `Cc1ccc(C)c(NC(=O)N2CCC3(CC2)NC(=O)c2ccccc2N3C)c1`, the RP-LC retention time is 763 s.

`O=C(NCc1cccs1)c1ccc2c(c1)ncn2CCN1CCCC1`: the RP-LC retention time worked out at 577 s.

`Cc1ccc(F)c(NS(=O)(=O)c2cn(C(C)C)c3ncccc23)c1` gave an RP-LC retention time of 912 s.

`CNC(=O)c1sc2nc(-c3ccc(F)cc3)c(NCCOC)n2c1C` yielded an RP-LC retention time of 741 s.

Regarding `O=C(Cn1ccc2sccc2c1=O)Nc1cccc(C(F)(F)F)c1`, the RP-LC retention time is 834 s.

Take `CCc1nc(N)n(CC(=O)NCc2ccc(Cl)cc2)c(=O)c1C`: the RP-LC retention time came out at 645 s.

As for `CC(=O)Nc1ccc(SCc2nnc(-c3ccccc3)o2)cc1`, the RP-LC retention time turned out to be 763 s.

The compound `Cc1nc2cc3c(cc2n1CC(=O)Nc1ccc2c(c1)OCCO2)OCCO3` had an RP-LC retention time of 632 s.

`O=c1n(Cc2cccc(C(F)(F)F)c2)nc2ccc(S(=O)(=O)N3CCCCC3)cn12` returned an RP-LC retention time of 1030 s.

For `O=C(NC1CCN(c2cc(-c3cccnc3)[nH]n2)CC1)c1ccc2cc[nH]c2c1`, the RP-LC retention time worked out at 616 s.

`Cc1cc(C)n2nc(SCC(=O)Nc3cccc(C(F)(F)F)c3)nc2n1` gave an RP-LC retention time of 827 s.

As to `CCOC(=O)c1noc2ncnc(Nc3ccc(C)cc3)c12`, the RP-LC retention time is 1010 s.

`CCOc1ccc(-c2ccc(=O)n(CCNC(=O)c3cn(C)nc3OC)n2)cc1` showed an RP-LC retention time of 645 s.

Consider `O=C(CCC1CCN(c2cc(NC3CC3)ncn2)CC1)N1CCN(c2ncccn2)CC1`, for which the RP-LC retention time came out at 615 s.

For the compound `Cc1nc(-c2ccccc2)cc2nn(CC(=O)N(C)c3ccccc3)c(=O)n12`, the RP-LC retention time is 917 s.

`CCN1CCCC1CN(CC(=O)N1CCNCC1)S(=O)(=O)c1ccc(CC(C)C)cc1` (stereo not given) had an RP-LC retention time of 610 s.

The compound `Clc1ccc(Cl)c(-c2ccc(CNCc3cccs3)o2)c1` returned an RP-LC retention time of 772 s.

`CCCn1nc(CNC(=O)Cc2ccsc2)c2ccccc21` registered an RP-LC retention time of 847 s.

`O=C(NCC1CCN(c2ncccn2)CC1)Nc1ccc2c(c1)OCO2` returned an RP-LC retention time of 632 s.

Regarding `COc1cccc(CNC(=O)c2c(C)oc3ccn(C)c(=O)c23)c1`, the RP-LC retention time was 844 s.

The compound `CCOc1ccccc1C(=O)NC1CCN(c2cc(-c3ccccc3)[nH]n2)C1` (stereo not given) gave an RP-LC retention time of 684 s.

Consider `O=C(c1ccc(Br)cc1)N1CCc2nc[nH]c2C1`, for which the RP-LC retention time came to 578 s.

Turning to `O=C(Cn1cnc2cc3c(cc21)OCCO3)Nc1cccc(C(F)(F)F)c1`, the RP-LC retention time worked out at 697 s.

The compound `Cn1c(=O)c2nc(S(=O)(=O)CCC(=O)Nc3ccc(Br)cc3)n(C)c2n(C)c1=O` displayed an RP-LC retention time of 779 s.

In turn, `O=C(NCc1ccc2c(c1)OCO2)C1CCCN(c2nnc3c(Cl)cccn23)C1` (stereo not given) displayed an RP-LC retention time of 701 s.

The compound `O=C([C@@H]1C[C@H](F)CN1C(=O)Nc1ccc(Br)cc1)N1CCCCC1` came in with an RP-LC retention time of 725 s.

Take `Cc1ccc2cc(CCC(=O)NCCCN3CCCC3=O)c(=O)[nH]c2c1`: the RP-LC retention time came to 623 s.

In turn, `Cc1ccc(CNC(=O)Nc2cc3c(cc2N2CCOCC2)n(C)c(=O)n3C)cc1` displayed an RP-LC retention time of 750 s.

Regarding `CSc1ccc(NC(=O)C2CC(=O)N(c3ccc4c(c3)CCN4C(C)=O)C2)cc1` (stereo not given), the RP-LC retention time amounted to 730 s.

`Cc1cccc(N(C)C(=O)Cn2nc3n(c2=O)CCCC3)c1` showed an RP-LC retention time of 669 s.

Compound `CCc1ccc(C2=C(C)C(N3CCC(NC(=O)NC(C)(C)C)CC3)=NS2(=O)=O)cc1` came in with an RP-LC retention time of 928 s.

`CCOc1ccc(-c2nc(CNC(=O)Nc3ccc(OC)c(OC)c3)c(C)o2)cc1` registered an RP-LC retention time of 822 s.

Consider `Cc1ccn2c(Nc3ccc(Cl)cc3)c(-c3ccc(N4CCOCC4)cc3)nc2c1`, for which the RP-LC retention time was determined as 967 s.

`CCCn1cc(-c2nc(-c3cc(OC)c(OC)c(OC)c3)no2)c(=O)c2ccccc21`: the RP-LC retention time amounted to 798 s.

Consider `CCn1c(=O)sc2cc(S(=O)(=O)N3CCC(C(=O)N4CCc5ccccc5C4)CC3)ccc21`, for which the RP-LC retention time was found to be 944 s.

Consider `Cn1c(=O)n(C2CCN(Cc3ccsc3)CC2)c2ncncc21`, for which the RP-LC retention time worked out at 552 s.

For `COCCN1C(=O)CCc2cc(NC(=O)Cc3ccccc3OC)ccc21`, the RP-LC retention time came out at 731 s.

In turn, `O=C(NCCc1csc(-c2ccccc2)n1)C1CCN(S(=O)(=O)c2cccc(Cl)c2)CC1` returned an RP-LC retention time of 982 s.

In turn, `CCN1CCN(c2cc(C(=O)O)c3cc(NS(=O)(=O)c4ccccc4C)ccc3n2)CC1` came in with an RP-LC retention time of 618 s.

`O=C(c1ccco1)N1CCC(n2c(-c3ccoc3)nc3cccnc32)C1` (stereo not given) showed an RP-LC retention time of 650 s.

As for `O=C(Nc1ccc(OCC(F)(F)C(F)F)cc1)c1ccncc1`, the RP-LC retention time worked out at 683 s.

For the compound `CCc1noc(-c2ccc(-n3ncc(C(=O)N4CCCCCC4)c3C)nc2)n1`, the RP-LC retention time turned out to be 1010 s.

`Cc1cccn2cc(-c3cccc(S(=O)(=O)N4CCCC4)c3)nc12`: the RP-LC retention time turned out to be 637 s.

Take `COc1cc(NC(=O)[C@@H]2COCC(=O)N2Cc2ccc(OC)cc2OC)cc(OC)c1`: the RP-LC retention time was determined as 702 s.

`O=C(NCCC1=CCCCC1)c1cccc(CN2C(=O)C3CCCN3C(=O)c3ccccc32)c1` (stereo not given) had an RP-LC retention time of 890 s.

On to `CCCN1C(=O)c2cc(S(=O)(=O)Nc3ccccc3C)ccc2Oc2cccnc21`, for which the RP-LC retention time turned out to be 1080 s.

Compound `O=C(Cn1c(=O)oc2ccccc21)N1[C@H]2CC[C@@H]1c1cnc(-c3ccc(F)cc3)nc1C2` gave an RP-LC retention time of 912 s.

For `COc1ccc(-c2cn3cccnc3n2)cc1NC(=O)c1ccc(C(F)(F)F)cc1`, the RP-LC retention time is 778 s.

The compound `CCSc1ccccc1C(=O)NCc1cc(-c2ccccc2)on1` had an RP-LC retention time of 864 s.

As to `Cc1nc2cc(-c3noc(CNC(=O)c4ccccc4)n3)ccc2n(C)c1=O`, the RP-LC retention time is 718 s.

`CC1(C(=O)NCc2ccccc2)CCCN(C(=O)Nc2ccc(Br)cc2)C1` (stereo not given): the RP-LC retention time amounted to 980 s.

The compound `Cc1nncn1C1CN(C(=O)c2ccc(N(C)C)cc2)C1` displayed an RP-LC retention time of 602 s.

The values are drawn from the METLIN SMRT retention time set (Domingo-Almenara et al. 2019).
